Patent US9969989B2, “Carotenoid dioxygenase and methods for the biotechnological production in microorganisms and plants of compounds derived from saffron” (AGENZIA NAZIONALE PER LE NUOVE TECNOLOGIE, L'ENERGIA E LO …, priority 2014, dated 2018)

Assays:
CCD2 [1] = test: CCD2 expressed in E. coli strains that accumulate lycopene, β-carotene or zeaxanthin; assay type: cell-based, Crocus sativus; conditions: E. coli strain accumulating the carotenoid, expression of CCD2
Text: (§1) RNA isolated from stigmas of saffron was sequenced by means of RNA-Seq 454 Titanium technology as reported in the literature (10) (FIG. 2A). The evolutionary relationships between the gene families CCD1 and CCD4 of saffron, Arabidopsis, rice and Synechocystis, were studied using the Neighbor-Joining method (11) (FIG. 2B), whilst the CCD proteins were modelled using the web server RaptorX (12) (FIG. 2C). The assays in bacteria were obtained by transforming particular strains of E. coli engineered to accumulate lycopene, β-carotene, and zeaxanthin, with the expression vectors pThio-DAN1-CCD2, pThio-DAN1-ZCD and pThio-DAN1 (empty vector, used as control) as indicated in the literature (13) (14) (15) (FIG. 3). The transformation of corn endosperm, in Agrobacterium tumefaciens-mediated manner, was obtained by cloning the coding sequence of CCD2 in the vector pBI121 (16) and by using protocols already present in the literature (17). The strain of E. coli BL21 (p-Gro7) was used to assay the activity in vitro of CCD2: the raw protein extracts were prepared and incubated with the appropriate substrates and extracts as described before (14) (FIG. 4). All the analyses directed to the identification and quantification of the carotenoids and apocarotenoids were performed using a mass spectrometry platform LTQ-Orbitrap coupled with a high-pressure liquid chromatography (HPLC) system and with a diode array detector (DAD) (ThermoFisher Scientific); the chromatographic separation was obtained using a C30 column with inverse phase, whereas for positive ionisation an APCI (Atmospheric Pressure Chemical Ionization) source was selected (18).
(§2) The coding sequences of the genes CCD2 and ZCD were cloned in the vector pThio-DAN1, which allows an inducible expression in E. coli induced from arabinose. The recombinant proteins were expressed in three strains of E. coli that accumulate lycopene, β-carotene and zeaxanthin (FIG. 3A) (13) (14). […] A peak with the chromatographic and the m/z ratio (329.1747) typical of crocetin was also discernible.

ZCD [2] = molecular target: T1, ZCD (Crocus sativus, UniProt Q84K96); test: ZCD expressed in E. coli strains that accumulate lycopene, β-carotene or zeaxanthin; assay type: cell-based; conditions: E. coli strain accumulating the carotenoid, expression of ZCD
T1 construct: expressed in transfected cells; host or cells: corn (maize) endosperm, Agrobacterium tumefaciens-mediated transformation
T1 sequence (Q84K96 1-369): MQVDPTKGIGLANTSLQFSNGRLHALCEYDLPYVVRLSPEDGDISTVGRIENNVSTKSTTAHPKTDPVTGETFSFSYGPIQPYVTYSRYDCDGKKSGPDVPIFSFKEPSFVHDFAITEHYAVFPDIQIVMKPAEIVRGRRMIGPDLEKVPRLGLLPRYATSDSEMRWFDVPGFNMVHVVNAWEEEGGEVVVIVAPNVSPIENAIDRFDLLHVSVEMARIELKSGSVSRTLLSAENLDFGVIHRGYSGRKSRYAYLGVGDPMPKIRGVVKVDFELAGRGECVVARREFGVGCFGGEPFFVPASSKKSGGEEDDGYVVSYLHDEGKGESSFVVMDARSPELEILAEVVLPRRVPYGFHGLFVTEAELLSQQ
Text: as §1, §2

CCD2 [3] = test: In vitro assay with semi-purified extracts of E. coli expressing CCD2, specificity for carotenoids; assay type: biochemical, Crocus sativus
Text: as §1
Since the strains of genetically modified E. coli can produce only a limited number of different carotenoids, we developed and used an in vitro assay, based on semi-purified extracts of E. coli that expresses CCD2, in order to study the specificity of this enzyme for the various carotenoids. […] 3-OH-β-apo-8′-carotenal, formed from CCD2 on the basis of the zeaxanthin in vitro, is then cleaved from the CCD2, with production of crocetin, signalling that the extracts of E. coli are able to convert the product of CCD2, crocetin dialdehyde, into crocetin.

ZCD [4] = molecular target: T1, ZCD; test: In vitro assay with extracts of E. coli expressing ZCD, specificity for carotenoids; assay type: biochemical
ZCD [5] = molecular target: T1, ZCD; test: Corn endosperm transformed with 35S:ZCD, carotenoids and apocarotenoids by LC-HRMS; assay type: cell-based; conditions: for Relative content of carotenoids and apocarotenoids in corn endosperm: 35S: ZCD, peak areas of the ions standardised by the internal standard, mean ± SD of 4 biological repetitions
Text: as §1
The sequences coding CCD2 and ZCD were cloned in the binary vector pBI121 under the control of the established promoter 35S. The vectors thus obtained were used to transform corn endosperm and cells of Arabidopsis thaliana, which contain zeaxanthin. […] Such a conversion is caused by the conversion of crocetin dialdehyde to crocetin in the corn endosperm (Table 1) and in the cells of Arabidopsis thaliana.

Molecule | Discoloration and cleavage product of the accumulated carotenoid (CCD2 [1]) | Discoloration and cleavage product of the accumulated carotenoid (ZCD [2]) | Cleavage of the substrate in vitro (CCD2 [3]) | Relative content of carotenoids and apocarotenoids in corn endosperm (ZCD [5]) | further results
CC(C)=CCC/C(C)=C/C=C/C(C)=C/C=C/C(C)=C/C=C/C=C(C)/C=C/C=C(C)/C=C/C=C(\C)CCC=C(C)C [lycopene] | no discoloration and no cleavage product | no discoloration and no cleavage product |  |  | 
CC1=C(/C=C/C(C)=C/C=C/C(C)=C/C=C/C=C(C)/C=C/C=C(C)/C=C/C2=C(C)C[C@@H](O)CC2(C)C)C(C)(C)C[C@H](O)C1 [Zeaxanthin] | clear discoloration | did not produce any discoloration or any cleavage product | cleaves | 1.73 ± 0.20 | Cleavage of the substrate in vitro (ZCD [4]): does not cleave; Cleavage product of zeaxanthin produced (ZCD [5]; corn endosperm expressing ZCD): No cleavage product
CC1=C(/C=C/C(C)=C/C=C/C(C)=C/C=C/C=C(C)/C=C/C=C(\C)C=O)C(C)(C)CCC1 [β-apo-8′-carotenal] |  |  | does not cleave |  | 
CC1=C(/C=C/C(C)=C/C=C/C(C)=C/C=C/C=C(C)/C=C/C=C(C)/C=C/C2=C(C)C[C@@H](O)CC2(C)C)C(C)(C)CCC1 [β-cryptoxanthin] |  |  |  | 0.12 ± 0.04 | 
CC1=C[C@H](O)CC(C)(C)[C@H]1/C=C/C(C)=C/C=C/C(C)=C/C=C/C=C(C)/C=C/C=C(C)/C=C/C1=C(C)C[C@@H](O)CC1(C)C [Lutein] |  |  |  | 0.64 ± 0.09 | 
3-OH-β-apo-8′-carotenal |  |  | cleaved |  | 
CC(/C=C/C=C(C)/C=C/[C@@]12O[C@]1(C)C[C@@H](O)CC2(C)C)=C\C=C\C=C(C)\C=C\C=C(C)\C=C\[C@@]12O[C@]1(C)C[C@@H](O)CC2(C)C [violaxanthin] |  |  | does not cleave |  | 
CC1=C(/C=C/C(C)=C/C=C/C(C)=C/C=C/C=C(C)/C=C/C=C(C)/C=C/C2=C(C)CCCC2(C)C)C(C)(C)CCC1 [β-carotene] | no discoloration and no cleavage product | no discoloration and no cleavage product | does not cleave |  | 
